Like-named read-outs stand apart in the source and are kept apart here.
Assay: logP determination by HPLC on reversed-phase column (EEC Directive 79/831 Annex V.A8)
Format: physicochemical
Conditions: for logP: Table 1 logP / m.p., C18, 43° C., acidic range (pH 2.3); for chromatographic logP: reversed-phase C18 HPLC column, pH 2.3, C18, 43° C.
Method: The given logP values were determined in accordance with EEC Directive 79/831 Annex V.A8 by HPLC (High Performance Liquid Chromatography) on a reversed-phase column (C 18). Temperature: 43° C. […] Calibration was carried out using unbranched alkan-2-ones (having 3 to 16 carbon atoms) with known logP values (determination of the logP values by the retention times using linear interpolation between two successive alkanones).

[1] = precursors, read-out: HPLC: logP

Row | logP | SMILES | also measured
1 | 4.27 | CC(C)CC(C)c1ccccc1NC(=O)C1=C(C(F)(F)F)OC(C)CS1 (centres unmarked) [Example 63] | 
2 | 3.92 | O=C(Nc1ccccc1-c1ccc(Cl)c(Cl)c1)C1=C(C(F)F)OCCS1 [Example 84] | 
3 | 4.06 | Cc1cc(-c2ccccc2NC(=O)C2=C(C(F)(F)F)OCCS2)ccc1Br [Example 98] | 
4 | 3.62 | CCC(CC)c1ccccc1NC(=O)C1=C(C(F)(F)F)OCCS1 [Example 51] | 
5 | 4.32 | CC1CSC(C(=O)Nc2ccc(F)cc2-c2ccc(Cl)c(Cl)c2)=C(C(F)(F)F)O1 (centres unmarked) [Example 67] | 
6 | 3.66 | Cc1cc(Cl)ccc1-c1ccccc1NC(=O)C1=C(C(F)(F)F)OCCS1(=O)=O [Example 92] | 
7 | 4.52 | CCCON=Cc1ccc(-c2ccccc2NC(=O)C2=C(C(F)F)OCCS2)cc1F [Example 85] | 
8 | 4.48 | CCC(C)(C)CC(C)c1ccccc1NC(=O)C1=C(C(F)(F)F)OCCS1 (centres unmarked) [Example 58] | 
9 | 4.18 | CC1CC(C)(C)c2cccc(NC(=O)C3=C(C(F)(F)F)OCCS3)c21 (centres unmarked) [Example 60] | 
10 | 3.76 | C#CCON=C(C)c1ccc(-c2ccccc2NC(=O)C2=C(C(F)(F)F)OCCS2)cc1 [Example 40] | 
11 | 3.70 | O=C(Nc1cc(F)ccc1-c1cc(F)cc(F)c1)C1=C(C(F)(F)F)OCCS1 [Example 75] | 
12 | 2.53 | CON=C(c1ccc(-c2ccccc2NC(=O)C2=C(C(F)(F)F)OCCS2)cc1)C(F)(F)F [Example 100] | 
13 | 4.71 | CC(CC1CCCCC1)c1ccccc1NC(=O)C1=C(C(F)(F)F)OCCS1 (centres unmarked) [Example 31] | 
14 | 3.69 | CON=C(C)c1ccc(-c2ccccc2NC(=O)C2=C(C(F)(F)F)OCCS2)cc1F [Example 46] | 
15 | 4.34 | CCCCCC(C)c1ccccc1NC(=O)C1=C(C(F)(F)F)OCCS1 (centres unmarked) [Example 48] | 
16 | 3.72 | CC(C)CCc1ccccc1NC(=O)C1=C(C(F)(F)F)OCCS1 [Example 102] | 
17 | 3.57 | O=C(Nc1ccccc1-c1ccc(Cl)c(Cl)c1)C1=C(C(F)(F)F)OCCS1(=O)=O [Example 93] | 
18 | 4.07 | CCCC(CC)c1ccccc1NC(=O)C1=C(C(F)(F)F)OCCS1 (centres unmarked) [Example 77] | 
19 | 1.96 | CON=C(N)c1ccc(-c2ccccc2NC(=O)C2=C(C(F)(F)F)OCCS2)cc1 [Example 41] | 
20 |  | CC1COC(C(F)(F)F)=C(C(=O)O)S1 (centres unmarked) [Example (II-2)] | chromatographic logP [1]: 1.69
21 | 3.28 | O=C(Nc1ccccc1-c1ccc(Cl)c(F)c1)C1=C(C(F)(F)F)OCCS1(=O)=O [Example 95] | 
22 | 4.24 | CC(C)CC(C)c1ccccc1NC(=O)C1=C(C(F)(F)F)OCC(C)S1 (centres unmarked) [Example 3] | 
23 | 4.57 | CC(C)ON=Cc1ccc(-c2ccccc2NC(=O)C2=C(C(F)(F)F)OCC(C)S2)cc1 (centres unmarked) [Example 8] | 
24 | 3.69 | O=C(Nc1ccccc1C1CCCCC1)C1=C(C(F)(F)F)OCCS1 [Example 28] | 
25 | 3.98 | CC(C)(C)CCc1ccccc1NC(=O)C1=C(C(F)(F)F)OCCS1 [Example 103] | 

Row | logP | SMILES | also measured
26 |  | CCC(Cl)CC(C)c1ccccc1N (centres unmarked) [Example (III-3), 2-(3-Chloro-1-methylpentyl)phenylamine] | chromatographic logP [1]: 2.3
27 | 4.06 | CC1COC(C(F)(F)F)=C(C(=O)Nc2ccccc2-c2ccc(C(F)(F)F)cc2)S1 (centres unmarked) [Example 9] | 
28 | 2.87 | N#Cc1ccc(-c2ccccc2NC(=O)C2=C(C(F)(F)F)OCCS2)cc1 [Example 78] | 
29 | 3.98 | Cc1cc(-c2ccccc2NC(=O)C2=C(C(F)(F)F)OCC(C)S2)ccc1F (centres unmarked) [Example 5] | 
30 | 3.49 | O=C(Nc1ccc(F)cc1-c1cc(F)cc(F)c1)C1=C(C(F)(F)F)OCCS1 [Example 73] | 
31 | 4.30 | CC1COC(C(F)(F)F)=C(C(=O)Nc2ccccc2-c2ccc(Cl)c(C(F)(F)F)c2)S1 (centres unmarked) [Example 7] | 
32 | 3.53 | CC(C)CC(C)c1ccccc1NC(=O)C1=C(C(F)(F)F)OCCS1(=O)=O (centres unmarked) [Example 90] | 
33 | 3.35 | O=C(Nc1ccccc1-c1ccc(Br)cc1)C1=C(C(F)(F)F)OCCS1(=O)=O [Example 91] | 
34 | 3.53 | O=C(Nc1ccccc1-c1ccc(Cl)c(Cl)c1)C1=C(C2CC2)OCCS1 [Example 80] | 
35 | 3.35 | O=C(Nc1ccccc1-c1cc(F)cc(F)c1)C1=C(C(F)(F)F)OCCS1 [Example 32] | 
36 | 4.65 | CCCC(CC(C)C)c1ccccc1NC(=O)C1=C(C(F)(F)F)OCCS1 (centres unmarked) [Example 87] | 
37 | 3.92 | CC(CC1CC1(Cl)Cl)c1ccccc1NC(=O)C1=C(C(F)(F)F)OCCS1 (centres unmarked) [Example 55] | 
38 | 4.42 | CC(C)(C)C#Cc1ccccc1NC(=O)C1=C(C(F)(F)F)OCCS1 [Example 97] | 
39 | 4.27 | CC1CSC(C(=O)Nc2ccccc2-c2ccc(Cl)c(Cl)c2)=C(C(F)(F)F)O1 (centres unmarked) [Example 65] | 
40 | 3.60 | O=C(Nc1ccccc1-c1cc(F)cc(Cl)c1)C1=C(C(F)(F)F)OCCS1 [Example 44] | 
41 | 3.81 | CON=Cc1ccc(-c2ccccc2NC(=O)C2=C(C(F)(F)F)OC(C)CS2)cc1 (centres unmarked) [Example 62] | 
42 | 5.36 | CC1CSC(C(=O)Nc2ccccc2C2CC3CCC2C3)=C(C(F)(F)F)O1 (centres unmarked) [Example 59] | 
43 | 4.03 | O=C(Nc1ccccc1-c1ccc(Cl)c(C(F)(F)F)c1)C1=C(C(F)(F)F)OCCS1 [Example 30] | 
44 |  | CO/N=C/c1ccc(-c2ccccc2NC(=O)C2=C(C(F)(F)F)OCCS2)cc1 [Example 1, N-[4′-(methoxyiminomethyl)-biphenyl-2-yl]-6-trifluoromethyl-2,3-dihydro-1,4-oxathiin-5-carboxamide] | chromatographic logP (read-out: logP (pH 2.3)): 3.51
45 | 3.72 | CC(CC1CC1)c1ccccc1NC(=O)C1=C(C(F)(F)F)OCCS1 (centres unmarked) [Example 96] | 
46 | 3.99 | Cc1cc(-c2ccccc2NC(=O)C2=C(C(F)(F)F)OC(C)CS2)ccc1F (centres unmarked) [Example 70] | 
47 | 3.85 | O=C(Nc1ccccc1-c1ccc(I)cc1)C1=C(C(F)(F)F)OCCS1 [Example 33] | 
48 | 3.88 | CCC(C)C(C)c1ccccc1NC(=O)C1=C(C(F)(F)F)OCCS1 (centres unmarked) [Example 94] | 
49 | 4.53 | CC1COC(C(F)(F)F)=C(C(=O)Nc2ccccc2C(C)CC(C)(C)C)S1 (centres unmarked) [Example 4] | 
50 | 4.26 | CC1COC(C(F)(F)F)=C(C(=O)Nc2ccccc2-c2ccc(Cl)c(Cl)c2)S1 (centres unmarked) [Example 6] | 

Row | logP | SMILES | also measured
51 | 3.45 | CON=C(C)c1ccc(-c2ccccc2NC(=O)C2=C(C(F)(F)F)OCCS2)cc1Cl [Example 45] | 
52 | 4.00 | CC1CC(C)(C)c2cccc(NC(=O)C3=C(C(F)F)OCCS3)c21 (centres unmarked) [Example 83] | 
53 | 3.20 | O=C(Nc1c(F)cccc1-c1cc(F)cc(F)c1)C1=C(C(F)(F)F)OCCS1 [Example 74] | 
54 | 4.32 | CC(=CC(C)C)c1ccccc1NC(=O)C1=C(C(F)(F)F)OCCS1 [Example 89] | 
55 | 3.62 | Cc1ccc(-c2ccccc2NC(=O)C2=C(C(F)(F)F)OCCS2)cc1F [Example 36] | 
56 |  | CC1CSC(C(=O)O)=C(C(F)(F)F)O1 (centres unmarked) [Example (II-3)] | chromatographic logP [1]: 1.72
57 | 4.51 | CC1CSC(C(=O)Nc2ccccc2C(C)CC(C)(C)C)=C(C(F)(F)F)O1 (centres unmarked) [Example 66] | 
58 | 4.25 | CCCCCCc1ccccc1NC(=O)C1=C(C(F)(F)F)OCCS1 [Example 76] | 
59 | 4.08 | CC1CSC(C(=O)Nc2ccccc2-c2ccc(C(F)(F)F)cc2)=C(C(F)(F)F)O1 (centres unmarked) [Example 61] | 
60 | 3.94 | CC(C)CC(C)c1cc(F)ccc1NC(=O)C1=C(C(F)(F)F)OCCS1 (centres unmarked) [Example 50] | 
61 | 3.66 | CC1(c2ccccc2NC(=O)C2=C(C(F)(F)F)OCCS2)CC1(Cl)Cl (centres unmarked) [Example 101] | 
62 | 3.33 | C=CCC(C)c1ccccc1NC(=O)C1=C(C(F)(F)F)OCCS1 (centres unmarked) [Example 34] | 
63 |  | CC(CC1CC1(Cl)Cl)c1ccccc1NC(=O)C(C)(C)C (centres unmarked) [III-4a, N-{2-[2-(2,2-dichlorocyclopropyl)-1-methylethyl]-phenyl}-2,2-dimethylpropionamide] | chromatographic logP (read-out: logP (pH 2.3)): 3.77
64 | 4.77 | CCCON=Cc1ccc(-c2ccccc2NC(=O)C2=C(C(F)(F)F)OC(C)CS2)cc1F (centres unmarked) [Example 68] | 
65 | 3.67 | CCCC(C)c1cc(F)ccc1NC(=O)C1=C(C(F)(F)F)OCCS1 (centres unmarked) [Example 52] | 
66 | 4.08 | CC1CSC(C(=O)Nc2ccccc2-c2ccc(C(F)(F)F)c(F)c2)=C(C(F)(F)F)O1 (centres unmarked) [Example 71] | 
67 | 3.99 | Cc1ccc(-c2ccccc2NC(=O)C2=C(C(F)(F)F)OC(C)CS2)cc1F (centres unmarked) [Example 69] | 
68 | 4.30 | CCC(CC(C)C)c1ccccc1NC(=O)C1=C(C(F)(F)F)OCCS1 (centres unmarked) [Example 88] | 
69 | 4.31 | CC(c1ccccc1NC(=O)C1=C(C(F)(F)F)OCCS1)C1CCCCC1 (centres unmarked) [Example 49] | 
70 |  | CC(C)=CC(C)c1ccccc1N (centres unmarked) [Example (III-2)] | chromatographic logP [1]: 1.19
71 | 4.29 | CC(CC(C)(C)C)c1ccccc1NC(=O)C1=C(C(F)F)OCCS1 (centres unmarked) [Example 81] | 
72 | 5.48 | CCCCCCCCC(C)c1ccccc1NC(=O)C1=C(C(F)(F)F)OCCS1 (centres unmarked) [Example 42] | 
73 | 4.56 | CC(C)ON=Cc1ccc(-c2ccccc2NC(=O)C2=C(C(F)(F)F)OC(C)CS2)cc1 (centres unmarked) [Example 64] | 
74 | 4.56 | CC(=O)N(C(=O)C1=C(C(F)(F)F)OCCS1)c1ccccc1C(C)CC(C)C (centres unmarked) [Example 99] | 
75 | 4.42 | CCCON=Cc1ccc(-c2ccccc2NC(=O)C2=C(C(F)(F)F)OCCS2)cc1F [Example 25] | 

Row | SMILES | logP | also measured
76 | CCCC(C)c1ccccc1NC(=O)C1=C(C(F)(F)F)OCCS1 (centres unmarked) [Example 39] | 3.63 | 
77 | CCC(C)CC(C)c1ccccc1NC(=O)C1=C(C(F)(F)F)OCCS1 (centres unmarked) [Example 54] | 4.25 | 

— US7847108B2, “Oxathiin carboxamides” (Bayer CropScience AG, priority 2003, dated 2010)
